Results reported in the OligoGym collection.
HELM strings list units from the 5' end as sugar, base in round brackets, then linkage (d deoxyribose, r ribose, m 2'-O-methyl, p phosphodiester). Strings are as the collection lists them; they lack the last nucleoside at the 3' end of the tested compound. [moe] = 2'-O-(2-methoxyethyl) (MOE); [sp] = phosphorothioate linkage; [m5C] = 5-methylcytosine

Target: UBE3A-ATS
Experiment: mouse, dose not given
Settings: ASO

Substance | 3 h FOB score [score 0-7]
RNA1{[moe](T)[sp].[moe](G)p.[moe](T)p.[moe](G)p.[moe]([m5C])[sp].d(A)[sp].d(T)[sp].d(A)[sp].d([m5C])[sp].d([m5C])[sp].d([m5C])[sp].d(A)[sp].d(G)[sp].[moe](G)p.[moe](G)p.[moe](T)[sp].[moe](A)}$$$$ (last 3' nucleoside missing) | 1
RNA1{[moe](T)[sp].[moe](G)p.[moe](T)p.[moe](G)p.[moe]([m5C])p.[moe](A)[sp].d(T)[sp].d(A)[sp].d([m5C])[sp].d([m5C])[sp].d([m5C])[sp].d(A)[sp].d(G)[sp].d(G)[sp].[moe](G)p.[moe](T)[sp].[moe](A)}$$$$ (last 3' nucleoside missing) | 1
RNA1{[moe](T)[sp].[moe](G)p.[moe](T)p.[moe](G)p.[moe]([m5C])p.[moe](A)p.d(T)[sp].d(A)[sp].d([m5C])[sp].d([m5C])[sp].d([m5C])[sp].d(A)[sp].d(G)[sp].d(G)[sp].d(G)[sp].d(T)[sp].[moe](A)p.[moe](G)[sp].[moe](G)}$$$$ (last 3' nucleoside missing) | 0
RNA1{[moe](T)[sp].[moe](G)p.[moe](T)p.[moe](G)p.[moe]([m5C])p.d(A)[sp].d(T)[sp].d(A)[sp].d([m5C])[sp].d([m5C])[sp].d([m5C])[sp].d(A)[sp].d(G)[sp].d(G)[sp].d(G)[sp].[moe](T)p.[moe](A)p.[moe](G)[sp].[moe](G)}$$$$ (last 3' nucleoside missing) | 3
RNA1{[moe](T)[sp].[moe](G)p.[moe](T)p.[moe](G)p.d(T)[sp].d(G)[sp].d(T)[sp].d(T)[sp].d(T)[sp].d(T)[sp].d(T)[sp].d([m5C])[sp].d([m5C])[sp].d(A)[sp].[moe](T)p.[moe](T)p.[moe](T)p.[moe](T)[sp].[moe](T)}$$$$ (last 3' nucleoside missing) | 1
RNA1{[moe](T)[sp].[moe](G)p.[moe](T)p.[moe](G)p.d(T)[sp].d(T)[sp].d(T)[sp].d(T)[sp].d(T)[sp].d([m5C])[sp].d([m5C])[sp].d(A)[sp].d(T)[sp].d(T)[sp].[moe](T)p.[moe](T)p.[moe](T)p.[moe]([m5C])[sp].[moe](T)}$$$$ (last 3' nucleoside missing) | 1
RNA1{[moe](T)[sp].[moe](G)p.[moe](T)p.[moe](G)p.d([m5C])[sp].d(A)[sp].d(T)[sp].d(A)[sp].d([m5C])[sp].d([m5C])[sp].d([m5C])[sp].d(A)[sp].d(G)[sp].d(G)[sp].[moe](G)p.[moe](T)p.[moe](A)p.[moe](G)[sp].[moe](G)}$$$$ (last 3' nucleoside missing) | 1
RNA1{[moe](T)[sp].[moe](G)p.[moe](T)p.[moe](T)p.[moe](G)p.d(T)[sp].d(A)[sp].d(T)[sp].d(G)[sp].d([m5C])[sp].d(A)[sp].d(G)[sp].d(G)[sp].d(T)[sp].d(T)[sp].[moe]([m5C])p.[moe](A)p.[moe](T)[sp].[moe]([m5C])}$$$$ (last 3' nucleoside missing) | 4.5
RNA1{[moe](T)[sp].[moe](G)p.[moe](T)p.[moe]([m5C])p.[moe](G)p.d(A)[sp].d(G)[sp].d(A)[sp].d(A)[sp].d([m5C])[sp].d(T)[sp].d([m5C])[sp].d(A)[sp].d(A)[sp].d(A)[sp].[moe](A)p.[moe](G)p.[moe](G)[sp].[moe](T)}$$$$ (last 3' nucleoside missing) | 4.5
RNA1{[moe](T)[sp].[moe](G)p.[moe](T)p.[moe]([m5C])p.[moe](T)p.d([m5C])[sp].d(T)[sp].d(A)[sp].d(A)[sp].d(T)[sp].d([m5C])[sp].d([m5C])[sp].d(T)[sp].d(A)[sp].d(T)[sp].[moe](T)p.[moe]([m5C])p.[moe]([m5C])[sp].[moe](A)}$$$$ (last 3' nucleoside missing) | 0
RNA1{[moe](T)[sp].[moe](G)p.[moe]([m5C])p.[moe](A)[sp].d(T)[sp].d(A)[sp].d([m5C])[sp].d([m5C])[sp].d([m5C])[sp].d(A)[sp].d(G)[sp].d(G)[sp].[moe](G)p.[moe](T)p.[moe](A)p.[moe](G)[sp].[moe](G)}$$$$ (last 3' nucleoside missing) | 0
RNA1{[moe](T)[sp].[moe](G)p.[moe]([m5C])p.[moe](A)p.[moe](T)[sp].d(A)[sp].d([m5C])[sp].d([m5C])[sp].d([m5C])[sp].d(A)[sp].d(G)[sp].d(G)[sp].d(G)[sp].[moe](T)p.[moe](A)p.[moe](G)[sp].[moe](G)}$$$$ (last 3' nucleoside missing) | 1
RNA1{[moe](T)[sp].[moe](G)p.[moe]([m5C])p.[moe](A)p.[moe](T)p.[moe](A)[sp].d([m5C])[sp].d([m5C])[sp].d([m5C])[sp].d(A)[sp].d(G)[sp].d(G)[sp].d(G)[sp].d(T)[sp].[moe](A)p.[moe](G)[sp].[moe](G)}$$$$ (last 3' nucleoside missing) | 2
RNA1{[moe](T)[sp].[moe](G)p.[moe]([m5C])p.[moe](A)p.[moe](T)p.[moe](A)p.d([m5C])[sp].d([m5C])[sp].d([m5C])[sp].d(A)[sp].d(G)[sp].d(G)[sp].d(G)[sp].d(T)[sp].d(A)[sp].d(G)[sp].[moe](G)p.[moe](A)[sp].[moe](T)}$$$$ (last 3' nucleoside missing) | 4
RNA1{[moe](T)[sp].[moe](G)p.[moe]([m5C])p.[moe](A)p.[moe](T)p.d(A)[sp].d(A)[sp].d(A)[sp].d(G)[sp].d([m5C])[sp].d([m5C])[sp].d(A)[sp].d(G)[sp].d(G)[sp].d([m5C])[sp].[moe]([m5C])p.[moe](A)p.[moe](G)[sp].[moe](G)}$$$$ (last 3' nucleoside missing) | 2.2
RNA1{[moe](T)[sp].[moe](G)p.[moe]([m5C])p.[moe](A)p.[moe](T)p.d(A)[sp].d([m5C])[sp].d([m5C])[sp].d([m5C])[sp].d(A)[sp].d(G)[sp].d(G)[sp].d(G)[sp].d(T)[sp].d(A)[sp].[moe](G)p.[moe](G)p.[moe](A)[sp].[moe](T)}$$$$ (last 3' nucleoside missing) | 2
RNA1{[moe](T)[sp].[moe](G)p.[moe]([m5C])p.[moe](A)p.[moe](T)p.d(G)[sp].d(T)[sp].d(G)[sp].d(G)[sp].d(G)[sp].d([m5C])[sp].d([m5C])[sp].d(T)[sp].d([m5C])[sp].d(T)[sp].[moe](A)p.[moe](T)p.[moe](T)[sp].[moe](A)}$$$$ (last 3' nucleoside missing) | 4
RNA1{[moe](T)[sp].[moe](G)p.[moe]([m5C])p.[moe](A)p.d(T)[sp].d(A)[sp].d([m5C])[sp].d([m5C])[sp].d([m5C])[sp].d(A)[sp].d(G)[sp].d(G)[sp].d(G)[sp].d(T)[sp].[moe](A)p.[moe](G)p.[moe](G)p.[moe](A)[sp].[moe](T)}$$$$ (last 3' nucleoside missing) | 1
RNA1{[moe](T)[sp].[moe](G)p.[moe]([m5C])p.[moe](T)[sp].d(T)[sp].d([m5C])[sp].d(A)[sp].d([m5C])[sp].d([m5C])[sp].d(A)[sp].d(T)[sp].d(T)[sp].[moe](T)p.[moe](T)p.[moe](G)p.[moe](A)[sp].[moe]([m5C])}$$$$ (last 3' nucleoside missing) | 0
RNA1{[moe](T)[sp].[moe](G)p.[moe]([m5C])p.[moe](T)[sp].d([m5C])[sp].d(A)[sp].d(G)[sp].d(T)[sp].d(T)[sp].d(A)[sp].d(G)[sp].d(G)[sp].[moe](T)p.[moe](T)p.[moe](A)p.[moe](G)[sp].[moe](T)}$$$$ (last 3' nucleoside missing) | 7
RNA1{[moe](T)[sp].[moe](G)p.[moe]([m5C])p.[moe](T)p.[moe](G)p.[moe](A)p.d(T)[sp].d([m5C])[sp].d(A)[sp].d([m5C])[sp].d(A)[sp].d(T)[sp].d(T)[sp].d(A)[sp].d([m5C])[sp].d([m5C])[sp].[moe]([m5C])p.[moe](A)[sp].[moe](T)}$$$$ (last 3' nucleoside missing) | 1
RNA1{[moe](T)[sp].[moe](G)p.[moe]([m5C])p.[moe](T)p.[moe](G)p.d(A)[sp].d(T)[sp].d([m5C])[sp].d(A)[sp].d([m5C])[sp].d(A)[sp].d(T)[sp].d(T)[sp].d(A)[sp].d([m5C])[sp].[moe]([m5C])p.[moe]([m5C])p.[moe](A)[sp].[moe](T)}$$$$ (last 3' nucleoside missing) | 0
RNA1{[moe](T)[sp].[moe](G)p.[moe]([m5C])p.[moe](T)p.[moe](T)p.[moe]([m5C])p.d(A)[sp].d([m5C])[sp].d([m5C])[sp].d(A)[sp].d(T)[sp].d(T)[sp].d(T)[sp].d(T)[sp].d(G)[sp].d(A)[sp].[moe]([m5C])p.[moe]([m5C])[sp].[moe](T)}$$$$ (last 3' nucleoside missing) | 0
RNA1{[moe](T)[sp].[moe](G)p.[moe]([m5C])p.[moe](T)p.[moe](T)p.d([m5C])[sp].d(A)[sp].d([m5C])[sp].d([m5C])[sp].d(A)[sp].d(T)[sp].d(T)[sp].d(T)[sp].d(T)[sp].d(G)[sp].[moe](A)p.[moe]([m5C])p.[moe]([m5C])[sp].[moe](T)}$$$$ (last 3' nucleoside missing) | 1
RNA1{[moe](T)[sp].[moe](G)p.[moe]([m5C])p.[moe](T)p.[moe]([m5C])[sp].d(A)[sp].d(G)[sp].d(T)[sp].d(T)[sp].d(A)[sp].d(G)[sp].d(G)[sp].d(T)[sp].[moe](T)p.[moe](A)p.[moe](G)[sp].[moe](T)}$$$$ (last 3' nucleoside missing) | 6.3
RNA1{[moe](T)[sp].[moe](G)p.[moe]([m5C])p.[moe](T)p.[moe]([m5C])p.[moe](A)[sp].d(G)[sp].d(T)[sp].d(T)[sp].d(A)[sp].d(G)[sp].d(G)[sp].d(T)[sp].d(T)[sp].[moe](A)p.[moe](G)[sp].[moe](T)}$$$$ (last 3' nucleoside missing) | 5.7
RNA1{[moe](T)[sp].[moe](G)p.[moe]([m5C])p.[moe](T)p.[moe]([m5C])p.[moe](A)p.d(G)[sp].d(T)[sp].d(T)[sp].d(A)[sp].d(G)[sp].d(G)[sp].d(T)[sp].d(T)[sp].d(A)[sp].d(G)[sp].[moe](T)p.[moe](G)[sp].[moe]([m5C])}$$$$ (last 3' nucleoside missing) | 4
